Columns and labels:
Assay in all cases: relative viability (nuclei count vs DMSO), 5 days (fraction); higher = more cells survive
Kobe2602 + Alpelisib = compound: C1=CC(=CC=C1NC(=S)NNC2=C(C=C(C=C2[N+](=O)[O-])C(F)(F)F)[N+](=O)[O-])F [Kobe2602] + Cc1nc(NC(=O)N2CCC[C@H]2C(N)=O)sc1-c1ccnc(C(C)(C)C(F)(F)F)c1 [Alpelisib] (partner 2 µM)
Procedure, shortened: (§1)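 Relative viability is defined as nuclei in treated wells over nuclei in vehicle wells. Duplicate plates were run and medians reported. Lung cancer cell lines in 1536-well plates were dosed by pin tool one day after seeding, with one drug or with a fixed anchor-drug dose plus five library-drug doses (not always all listed) in √10 steps, and nuclei were counted after 5 days.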

Kobe2602 + Olaparib = compound: C1=CC(=CC=C1NC(=S)NNC2=C(C=C(C=C2[N+](=O)[O-])C(F)(F)F)[N+](=O)[O-])F [Kobe2602] + O=C(c1cc(Cc2n[nH]c(=O)c3ccccc23)ccc1F)N1CCN(C(=O)C2CC2)CC1 [Olaparib] (partner 8 µM)
Procedure, shortened: as §1

[1] = compound: COc1cc2nccc(Oc3ccc(NC(=O)C4(C(=O)Nc5ccc(F)cc5)CC4)cc3)c2cc1OC [Cabozantinib] + CC(=O)Nc1cccc(-n2c(=O)n(C3CC3)c(=O)c3c(Nc4ccc(I)cc4F)n(C)c(=O)c(C)c32)c1 [Trametinib] (partner 0.02 µM)
Procedure, shortened: as §1

Cabozantinib + Lapatinib = compound: COc1cc2nccc(Oc3ccc(NC(=O)C4(C(=O)Nc5ccc(F)cc5)CC4)cc3)c2cc1OC [Cabozantinib] + CS(=O)(=O)CCNCc1ccc(-c2ccc3ncnc(Nc4ccc(OCc5cccc(F)c5)c(Cl)c4)c3c2)o1 [Lapatinib] (partner 2 µM)
Procedure, shortened: as §1

| Cell Line | relative viability (Kobe2602 + Alpelisib; first compound 0.2 µM) | relative viability (Kobe2602 + Alpelisib; first compound 0.6325 µM) | relative viability (Kobe2602 + Alpelisib; first compound 6.325 µM) | relative viability (Kobe2602 + Alpelisib; first compound 20 µM) | relative viability (Kobe2602 + Olaparib; first compound 0.2 µM) | relative viability (Kobe2602 + Olaparib; first compound 0.6325 µM) | relative viability (Kobe2602 + Olaparib; first compound 2 µM) | relative viability (Kobe2602 + Olaparib; first compound 6.325 µM) | relative viability (Kobe2602 + Olaparib; first compound 20 µM) | relative viability ([1]; first compound 0.02 µM) | relative viability ([1]; first compound 0.06325 µM) | relative viability ([1]; first compound 0.2 µM) | relative viability ([1]; first compound 0.6325 µM) | relative viability ([1]; first compound 2 µM) | relative viability (Cabozantinib + Lapatinib; first compound 0.02 µM) | relative viability (Cabozantinib + Lapatinib; first compound 0.06325 µM) | relative viability (Cabozantinib + Lapatinib; first compound 0.2 µM) | relative viability (Cabozantinib + Lapatinib; first compound 0.6325 µM) | relative viability (Cabozantinib + Lapatinib; first compound 2 µM) | relative viability (Kobe2602 + Alpelisib; first compound 2 µM) |
| --- | --- | --- | --- | --- | --- | --- | --- | --- | --- | --- | --- | --- | --- | --- | --- | --- | --- | --- | --- | --- |
| NCI-H1666 | 0.97 | 0.925 | 0.893 | 0.768 | 0.717 | 0.741 | 0.829 | 0.774 | 0.805 | 0.845 | 0.83 | 0.798 | 0.883 | 0.878 | 0.693 | 0.621 | 0.677 | 0.712 | 0.595 |  |
| NCI-H1734 | 0.71 | 0.816 | 0.726 | 0.784 | 0.601 | 0.626 | 0.635 | 0.642 | 0.665 | 0.738 | 0.665 | 0.716 | 0.623 | 0.597 | 0.98 | 1.09 | 0.984 | 1.08 | 1.01 | 0.665 |
| NCI-H1755 | 0.906 | 0.874 | 0.866 | 0.956 | 0.848 | 0.893 | 0.87 | 0.853 | 0.915 | 0.816 | 0.765 | 0.795 | 0.73 | 0.718 | 1.02 | 1.12 | 1.05 | 0.964 | 0.932 | 0.919 |
| NCI-H1792 | 0.633 | 0.749 | 0.615 | 0.679 | 0.372 | 0.556 | 0.398 | 0.253 | 0.566 |  | 0.483 | 0.455 | 0.417 | 0.32 | 0.78 | 1.13 | 0.846 | 0.862 | 0.85 | 0.696 |
| NCI-H1793 | 0.629 | 0.615 | 0.684 | 0.847 | 0.91 | 0.852 | 0.744 | 0.883 | 0.977 | 0.489 | 0.428 |  | 0.432 | 0.341 | 0.95 | 1.15 | 0.571 | 0.508 | 0.594 | 0.589 |
| NCI-H1915 | 1.1 | 1.09 | 1.06 | 1.05 | 0.275 | 0.251 | 0.246 | 0.269 | 0.307 | 0.331 | 0.345 | 0.335 | 0.304 | 0.28 | 0.946 | 0.987 | 0.967 | 0.999 | 0.989 | 1.02 |
| NCI-H1944 | 0.803 | 0.884 | 0.805 | 0.944 | 0.475 | 0.385 | 0.403 | 0.432 | 0.403 | 0.441 | 0.401 | 0.386 | 0.416 | 0.413 |  | 0.858 | 0.793 | 0.756 | 0.884 | 0.885 |
| NCI-H1975 | 0.641 | 0.648 | 0.564 | 0.524 | 0.763 | 0.78 | 0.766 | 0.722 | 0.755 | 0.331 | 0.389 | 0.638 | 0.417 | 0.217 | 0.969 | 0.986 | 0.852 | 0.845 | 0.797 | 0.559 |
